Patent US10072125B2, “Thiourea-containing dendrimer and thiourea-containing hyperbranched polymer as well as preparation methods thereof and applications thereof” (priority 2014, dated 2018)
Values after ≈ are worked out from the molar mass of the structure shown. Marks after values point to notes of the source that are not given here.

What was measured:
Assay in all cases: Antibacterial performance test, MIC by broth dilution
Assay type in all cases: cell-based
Enterobacter cloacae = details: 24 h at 37° C., 5×10^5 CFU/mL
Procedure: (§1) To evaluate the antimicrobial activity of each generation of polythiourea dendrimer as described in Example 3, the MICs (minimal inhibitory concentrations) of these dendrimers against different bacteria strains, including Staphylococcus aureus, Enterococcus faecalis, Escherichia coli, Staphylococcus epidermidis, Enterobacter cloacae and Proteus valgaris were determined.
(§2) The strains stored at −20° C. were inoculated on MH agar plates and incubated overnight at 37° C. The monoclonal colonies were cultured in 3 mL nutrient broth at 37° C. to reach the logarithmic growth period. Then the bacteria were diluted with the MH broth to 0.5 millet turbidity standard and further diluted to 1:100 with MH broth as a stock. The diluted bacteria should be inoculated within 15 min. The polythiourea dendrimers were diluted with sterile water into 200 mg/mL, filtered and sterilized. Gentamicin and amikacin were used as positive controls for Gram-negative and Gram-positive bacteria, respectively. Dispense 100 μL of M-H broth into all wells of 96-well plate, and then pipette 100 μL of M-G1-PEG, M-G2-PEG, M-G3-PEG, M-G4-PEG, antibiotics and MH broth in the first column in the order of labeling. After mixing well with the gun, transfer 100 μL from each well in the first column to the corresponding well in the second column. Repeat the procedure to column 10 and discard […], from column 10. Then 100 μL of bacteria was added to each well. The final bacterial solution concentration per well was 5×10^5 CFU/mL. On the outer periphery of the 96-well plate, 200 μL of the drug-free suspension was added as a sterile control. At the same time subculture the suspension in the agar plate, for assessing the purity of bacteria. The inoculated 96-well plates were shaken on a micro-shaker for 1 min, mixed thoroughly and placed in a wet box. After incubated for 24 h at 37° C., the minimum drug concentration of the clear well was observed by the naked eye as the MIC of the drug. At the same time, it was examined whether the growth of the control well was good and the sterile control well was clear. The plate culture of the suspension was examined to determine whether it was contaminated and whether the MIC value of the control strain was in the control range. This assay was repeated three times.

Escherichia coli = details: 24 h at 37° C., 5×10^5 CFU/mL
Procedure: as §1, §2

Proteus valgaris = details: 24 h at 37° C., 5×10^5 CFU/mL
Procedure: as §1, §2

Enterococcus faecalis = details: 24 h at 37° C., 5×10^5 CFU/mL, read-out: MIC E. faecalis
Procedure: as §1, §2

Staphylococcus aureus = details: 24 h at 37° C., 5×10^5 CFU/mL, read-out: MIC S. aureus
Procedure: as §1, §2

[1] = system: Staphylococcus epidermidis; details: 24 h at 37° C., 5×10^5 CFU/mL, read-out: MIC S. epidermidis
Procedure: as §1, §2

| Compound | MIC E. cloacae (Enterobacter cloacae) | MIC E. coli (Escherichia coli) | MIC P. valgaris (Proteus valgaris) | MIC (Enterococcus faecalis) | MIC (Staphylococcus aureus) | MIC [1] |
| --- | --- | --- | --- | --- | --- | --- |
| Gentamicin | 2** μg/mL | 1** μg/mL | 2** μg/mL |  |  |  |
| NCC[C@H](O)C(=O)N[C@@H]1C[C@H](N)[C@@H](O[C@H]2O[C@H](CN)[C@@H](O)[C@H](O)[C@H]2O)[C@H](O)[C@H]1O[C@H]1O[C@H](CO)[C@@H](O)[C@H](N)[C@H]1O [Amikacin] |  |  |  | 4 µg/mL (≈ 6.83 µM) | 2 µg/mL (≈ 3.42 µM) | 0.5 µg/mL (≈ 0.854 µM) |
